Assay results reported in US20190216761A1, “COMPOSITIONS COMPRISING 15-HEPE AND METHODS OF USING THE SAME” (Afimmune Limited, priority 2015, published 2019).

Columns and labels:
Assay in all cases: PPAR antagonist reporter assay (reference agonist at EC80)
Type in all cases: cell-based
rPPARα = target: T1, rPPARα (Rattus norvegicus, UniProt P37230); conditions: for inhibition of rat PPARs (in words), rPPARα: at higher test concentrations
T1 construct: expressed in transfected cells
T1 sequence (P37230 239-466 limits assumed): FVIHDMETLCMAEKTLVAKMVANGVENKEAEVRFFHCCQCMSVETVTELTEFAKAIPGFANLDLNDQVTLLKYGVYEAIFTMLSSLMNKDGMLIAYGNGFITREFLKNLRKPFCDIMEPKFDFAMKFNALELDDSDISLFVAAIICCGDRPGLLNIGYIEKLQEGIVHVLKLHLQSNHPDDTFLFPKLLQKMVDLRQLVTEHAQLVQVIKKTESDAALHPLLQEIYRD
Protocol: (§1) This study utilized proprietary reporter cells expressing a hybrid receptor comprising the N-terminal Gal4 DNA binding domain fused to the ligand binding domain of the specific human nuclear receptor (hPPARα, hPPARδ, and hPPARγ) and rat nuclear receptor (rPPARα, rPPARδ, and rPPARγ). The reporter vectors used in this Example comprise the firefly luciferase gene functionally linked to the Gal4 upstream activation sequence.
(§2) Nuclear Receptor assay was performed by suspending Reporter Cells in CRM containing 10% charcoal stripped FBS. 2×-EC80 concentrations of the appropriate reference agonist were then added to the Reporter Cell suspension, and 100 μL of the mixture dispensed into wells of a white 96-well plate. Test compounds were diluted using compound screening medium (CSM) containing 10% charcoal stripped FBS to generate “2×-concentration” treatment media. Immediately after this dilution step, 100 μL of each diluted 2×-concentration treatment medium was dispensed (in triplicate) into the Reporter Cell-containing assay wells.
(§3) After incubation at 37° C. for 24 hours, the treatment media was discarded. Each well was rinsed once with LCM Buffer; LCM substrate was then added. After incubation for 30 minutes at 37° C., fluorescence was measured to determine the relative number of live cells per assay well. LCM substrate was then discarded and 100 μL of Luciferase Detection Reagent substrate was added to each well. RLUs were quantified from each well to determine nuclear receptor activities.

hPPARγ = target: T2, hPPARγ (Homo sapiens, UniProt P37231); conditions: for inhibition of human PPARs (in words), hPPARγ: at higher test concentrations
T2 construct: expressed in transfected cells
T2 sequence (P37231 238-503 limits assumed): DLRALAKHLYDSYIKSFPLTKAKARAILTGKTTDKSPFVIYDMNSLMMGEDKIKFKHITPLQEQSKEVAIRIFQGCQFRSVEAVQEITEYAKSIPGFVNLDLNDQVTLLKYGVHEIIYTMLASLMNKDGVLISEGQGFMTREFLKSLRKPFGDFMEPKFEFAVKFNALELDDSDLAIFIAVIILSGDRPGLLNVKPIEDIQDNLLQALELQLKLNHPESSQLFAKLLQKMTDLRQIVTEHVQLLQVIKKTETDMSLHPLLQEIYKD
Protocol: as §1, §2, §3

hPPARδ = target: T3, hPPARδ (Homo sapiens, UniProt Q03181); conditions: for inhibition of human PPARs (in words), hPPARδ: at higher test concentrations
T3 construct: expressed in transfected cells
T3 sequence (Q03181 211-439 limits assumed): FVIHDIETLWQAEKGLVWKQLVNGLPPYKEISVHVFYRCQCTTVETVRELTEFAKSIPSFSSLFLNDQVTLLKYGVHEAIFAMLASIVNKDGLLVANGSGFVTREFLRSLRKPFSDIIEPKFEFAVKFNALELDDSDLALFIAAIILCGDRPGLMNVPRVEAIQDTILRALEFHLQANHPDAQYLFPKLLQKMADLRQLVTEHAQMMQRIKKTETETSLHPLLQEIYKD
Protocol: as §1, §2, §3

SMILES | % Inhibition of agonist-stimulated receptor activity vs. 0.10% DMSO, rPPAR-α (rPPARα; 137 nM) [%] | % Inhibition of agonist-stimulated receptor activity vs. 0.10% DMSO, rPPAR-α (rPPARα; 412 nM) [%] | % Inhibition of agonist-stimulated receptor activity vs. 0.10% DMSO, rPPAR-α (rPPARα; 1,235 nM) [%] | % Inhibition of agonist-stimulated receptor activity vs. 0.10% DMSO, rPPAR-α (rPPARα; 3,704 nM) [%] | % Inhibition of agonist-stimulated receptor activity vs. 0.10% DMSO, rPPAR-α (rPPARα; 11,111 nM) [%] | % Inhibition of agonist-stimulated receptor activity vs. 0.10% DMSO, rPPAR-α (rPPARα; 33,333 nM) [%] | % Inhibition of agonist-stimulated receptor activity vs. 0.10% DMSO, rPPAR-α (rPPARα; 100,000 nM) [%] | % Inhibition of agonist-stimulated receptor activity vs. 0.10% DMSO, rPPAR-α (rPPARα; 300,000 nM) [%] | inhibition of rat PPARs (in words), rPPARα (rPPARα) | % Inhibition of agonist-stimulated receptor activity vs. 0.10% DMSO, hPPAR-γ (hPPARγ; 137 nM) [%] | % Inhibition of agonist-stimulated receptor activity vs. 0.10% DMSO, hPPAR-γ (hPPARγ; 412 nM) [%] | % Inhibition of agonist-stimulated receptor activity vs. 0.10% DMSO, hPPAR-γ (hPPARγ; 1,235 nM) [%] | % Inhibition of agonist-stimulated receptor activity vs. 0.10% DMSO, hPPAR-γ (hPPARγ; 3,704 nM) [%] | % Inhibition of agonist-stimulated receptor activity vs. 0.10% DMSO, hPPAR-γ (hPPARγ; 11,111 nM) [%] | % Inhibition of agonist-stimulated receptor activity vs. 0.10% DMSO, hPPAR-γ (hPPARγ; 33,333 nM) [%] | % Inhibition of agonist-stimulated receptor activity vs. 0.10% DMSO, hPPAR-γ (hPPARγ; 100,000 nM) [%] | % Inhibition of agonist-stimulated receptor activity vs. 0.10% DMSO, hPPAR-γ (hPPARγ; 300,000 nM) [%] | inhibition of human PPARs (in words), hPPARγ (hPPARγ) | % Inhibition of agonist-stimulated receptor activity vs. 0.10% DMSO, hPPAR-δ (hPPARδ; 137 nM) [%] | % Inhibition of agonist-stimulated receptor activity vs. 0.10% DMSO, hPPAR-δ (hPPARδ; 412 nM) [%] | also measured
CC/C=C\C[C@H](O)/C=C/C=C\C/C=C\C/C=C\CCCC(=O)OCC [15-HEPE-EE, 15-HEPE ethyl ester] | 42 | 26 | 25 | 21 | 21 | 38 | 79 | 100 | apparent inhibition | 17 | 0.87 | −1.4 | −4.6 | −0.42 | 5.2 | 44 | 100 | apparent inhibition | 0.68 | −7.7 | % Inhibition of agonist-stimulated receptor activity vs. 0.10% DMSO, hPPAR-δ (hPPARδ; 1,235 nM): −11%; % Inhibition of agonist-stimulated receptor activity vs. 0.10% DMSO, hPPAR-δ (hPPARδ; 3,704 nM): −10%; % Inhibition of agonist-stimulated receptor activity vs. 0.10% DMSO, hPPAR-δ (hPPARδ; 11,111 nM): −10%; % Inhibition of agonist-stimulated receptor activity vs. 0.10% DMSO, hPPAR-δ (hPPARδ; 33,333 nM): 1.6%; % Inhibition of agonist-stimulated receptor activity vs. 0.10% DMSO, hPPAR-δ (hPPARδ; 100,000 nM): 29%; % Inhibition of agonist-stimulated receptor activity vs. 0.10% DMSO, hPPAR-δ (hPPARδ; 300,000 nM): 100%; inhibition of human PPARs (in words), hPPARδ (hPPARδ): apparent inhibition
CC/C=C\C/C=C\C/C=C\C/C=C\C/C=C\CCCC(=O)OCC [EPA-EE, EPA ethyl ester, reference compound] | 51 | 20 | 5.7 | 4.2 | −4.7 | 1.4 | 13 | 36 | does not exhibit similar inhibitory activity | 13 | 3.8 | −8.0 | −11 | −8.4 | 2.9 | −0.59 | 30 | does not exhibit similar inhibitory activity | −3.4 | −8.9 | % Inhibition of agonist-stimulated receptor activity vs. 0.10% DMSO, hPPAR-δ (hPPARδ; 1,235 nM): −5.5%; % Inhibition of agonist-stimulated receptor activity vs. 0.10% DMSO, hPPAR-δ (hPPARδ; 3,704 nM): −15%; % Inhibition of agonist-stimulated receptor activity vs. 0.10% DMSO, hPPAR-δ (hPPARδ; 11,111 nM): −7.9%; % Inhibition of agonist-stimulated receptor activity vs. 0.10% DMSO, hPPAR-δ (hPPARδ; 33,333 nM): −18%; % Inhibition of agonist-stimulated receptor activity vs. 0.10% DMSO, hPPAR-δ (hPPARδ; 100,000 nM): −6.8%; % Inhibition of agonist-stimulated receptor activity vs. 0.10% DMSO, hPPAR-δ (hPPARδ; 300,000 nM): 11%; inhibition of human PPARs (in words), hPPARδ (hPPARδ): does not exhibit similar inhibitory activity
